{"source": "patent US20060258598A1", "about": "“Alpha-keto carbonyl calpain inhibitors” (priority 2003, published 2006)", "key": {"mdx mouse": {"test_system": "mdx mouse", "experiment": "Longterm treatment of mdx mice (model for Duchenne Muscular Dystrophy)", "format": "in vivo", "conditions": "10 mg/kg/day i.p., 4 weeks, vs vehicle mdx mice", "protocol": "The mdx mouse is a well established animal model for Duchenne Muscular Dystrophy (Bulfield G., Siller W. G., Wight P. A., Moore K. J., X chromosome-linked muscular dystrophy (mdx) in the mouse, Proc. Natl. Acad. Sci. USA., 1984, 81(4), 1189-1192). Selected compounds were tested in longterm treatments of mdx mice, according to the procedures described below.\nMouse strains: C57BL/10scsn and C57BL/10scsn mdx mouse strains were purchased at The Jackson Laboratory (ME, USA) and bred inhouse. Mouse males were sacrificed at the age of 3 or 7 weeks by CO2 asphyxiation.\nTreatment: Compounds were dissolved in 50% PEG, 50% saline solution and applied by i.p. injection.\nHistology: Tibialis anterior (TA) and diaphragm (Dia) muscles were collected and mounted on cork supports using gum tragacanth (Sigma-Aldrich, Germany). The samples were snap-frozen in melting isopentane and stored at −80° C. 12 μm thick cryosections of the mid-belly region of muscles were prepared. For staining, sections were air dried and fixed with 4% PFA in PBS for 5 minutes, washed 3 times with PBS and incubated over night at 4° C. in PBS containing 2 μg/ml Alexa Fluor™ 488 conjugated wheat-germ agglutinin (WGA-Alexa, Molecular Probes, Eugen, Oreg., USA) to stain membrane-bound and extracellular epitopes and 1 μg/ml 4′,6-diamidino-2-phenylindole (DAPI; Molecular Probes) to stain nuclei.\nImage acquisition and analysis: Fluorescence microscopy images of both labels were acquired using a digital camera (ColorView II, Soft Imaging System, Munster, Germany) coupled to a fluorescence microscope (Vanox S, Olympus, Tokyo, Japan). Combination of these two stainings to a composite image, assembling of several images to a complete image of the entire muscle cross-section and further semi-automated analysis was performed using the image analysis program AnalySIS (Soft Imaging System). Image analysis of 1200-2900 muscle fibers in each section was performed in three steps: 1) determination of the muscle fiber boundaries, 2) determination of the muscle fiber size, and 3) determination of the percentage of muscle fibers containing centralized nuclei. Six different geometrical parameters were tested for the determination of the muscle fiber size: (a) the “minimal feret” (the minimum distance of parallel tangents at opposing borders of the muscle fiber), (b) the “area”, (c) the “minimal inner diameter” (the minimum diameter through the center of the muscle fiber), (d) the “minimal diameter” (the minimum diameter of a muscle fiber for angles in the range 0° through 179° with step width 1°, (e) the “minimal outer diameter” (the minimum diameter through the muscle fiber from outer border to outer border), and (f) the “perimeter”. The variance coefficient of the muscle fiber size is defined as follows: variance coefficient=(standard deviation of the muscle fiber size/mean of the muscle fiber size of the section)*1000. For statistical analysis of different variance coefficient values Mann-Whitney U test was used.\nSelected Examples of the present invention were active in the mdx mouse model at 10 mg/kg/day, using 3 week old mice and a treatment period of 4 weeks (N=5−10)."}, "human μ-calpain": {"target": "T1, human μ-calpain (Homo sapiens, UniProt P07384)", "T1 construct": "purchased Calbiochem", "T1 sequence (P07384 1-714)": "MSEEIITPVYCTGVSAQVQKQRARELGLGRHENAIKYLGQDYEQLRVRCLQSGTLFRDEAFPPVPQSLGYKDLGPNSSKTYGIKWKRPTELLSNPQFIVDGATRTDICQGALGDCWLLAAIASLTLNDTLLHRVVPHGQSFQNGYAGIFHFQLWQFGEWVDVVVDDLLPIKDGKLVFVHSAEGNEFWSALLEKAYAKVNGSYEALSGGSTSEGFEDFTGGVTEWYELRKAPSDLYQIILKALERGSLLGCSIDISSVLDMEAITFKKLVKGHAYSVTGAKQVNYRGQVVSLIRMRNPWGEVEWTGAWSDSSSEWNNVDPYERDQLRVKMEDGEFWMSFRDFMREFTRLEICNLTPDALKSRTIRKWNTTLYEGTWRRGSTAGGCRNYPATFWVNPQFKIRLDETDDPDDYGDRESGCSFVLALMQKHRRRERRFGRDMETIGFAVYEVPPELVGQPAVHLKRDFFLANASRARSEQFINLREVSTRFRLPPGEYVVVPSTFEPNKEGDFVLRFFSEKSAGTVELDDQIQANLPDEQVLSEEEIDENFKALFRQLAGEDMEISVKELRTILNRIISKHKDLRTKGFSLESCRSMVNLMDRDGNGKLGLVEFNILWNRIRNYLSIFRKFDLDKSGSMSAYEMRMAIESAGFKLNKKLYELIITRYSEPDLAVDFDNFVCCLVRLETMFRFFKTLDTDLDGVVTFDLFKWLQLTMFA", "T1 sequence (P04632 1-268 partner)": "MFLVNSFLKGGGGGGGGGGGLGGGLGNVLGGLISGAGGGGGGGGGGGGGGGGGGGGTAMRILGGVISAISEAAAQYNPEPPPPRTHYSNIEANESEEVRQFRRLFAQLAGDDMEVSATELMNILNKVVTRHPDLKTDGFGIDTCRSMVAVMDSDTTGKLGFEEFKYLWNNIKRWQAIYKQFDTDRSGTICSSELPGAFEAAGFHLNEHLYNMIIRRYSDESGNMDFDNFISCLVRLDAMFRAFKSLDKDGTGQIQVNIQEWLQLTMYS", "experiment": "Enzymatic calpain inhibition assay", "format": "biochemical", "conditions": "substrate Suc-Leu-Tyr-AMC, read-out: Calp I IC50", "procedure,_shortened": "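Human μ-calpain (0.5 μg) with 250 μM Suc-Leu-Tyr-AMC in 100 mM imidazole pH 7.5, 5 mM cysteine, 5 mM CaCl2. AMC fluorescence (ex 360/em 440 nm) followed 30 min at 30 °C; IC50 determined graphically from initial velocities versus inhibitor concentration.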"}}, "data": [{"smiles": "CCNC(=O)C(=O)[C@H](Cc1ccc(Br)cc1)NC(=O)[C@H](CC(C)C)NC(=O)CCCCC1CCSS1", "note": "(some centres unmarked) [Example 64]", "values": [{"measurement": "decrease in the variance coefficient of the muscle fiber size", "setting": "mdx mouse; Dia (diaphragm)", "result": 29, "unit": "%"}, {"measurement": "reduction of percentage of centralized nuclei", "setting": "mdx mouse; Dia (diaphragm)", "result": 61, "unit": "%"}, {"measurement": "decrease in the variance coefficient of the muscle fiber size", "setting": "mdx mouse; TA (tibialis anterior)", "result": 43, "unit": "%"}, {"measurement": "reduction of percentage of centralized nuclei", "setting": "mdx mouse; TA (tibialis anterior)", "result": 28, "unit": "%"}, {"measurement": "IC50", "setting": "human μ-calpain", "result": 0.025, "unit": "µM"}]}]}
